According to patent US9920042B2, “Compounds for use in the treatment of mycobacterial infections” (Universite de Droit et de la Sante de Lille 2, priority 2012, dated 2018):

Legend:
[1] = Measurement of the solubility; type: physicochemical; conditions: aqueous buffer, kinetic from dmso stock; PBS at pH 7.4, 24 h at AT, LC-MS ratio PBS/MeOH; read-out: Solubilité
Description: Measurement of the Solubility
40 μL of a solution at 10 mM in DMSO of the sample are added at 1.96 mL MeOH or PBS at pH 7.4. The samples are then agitated during 24 h at AT, centrifuged during 5 min and then filtrated on filters of 0.45 μm size. 20 μL of each solution are then added to 180 μL MeOH and then analyzed by LC-MS. The solubility is determined as ratio of the surfaces of the mass signals PBS/MeOH.

[2] = system: M. tuberculosis alone or macrophages infected by M. tuberculosis; assay: Potentiation of ethionamide cell test (High Content Screening); type: cell-based; conditions: ligand concentration potentiating ten times the activity of ethionamide; ethionamide constant at 0.1 μg/mL (1/10th of its CMI99); read-out: EC50
[3] = biological target: EthR protein (interaction with the ethA gene promoter) (Mycobacterium tuberculosis, UniProt P9WMC1); assay: Surface Plasmon Resonance test (SPR): inhibition of EthR binding to the ethA gene promoter; type: biochemical, M. tuberculosis
Sequence of EthR protein (interaction with the ethA gene promoter) (P9WMC1 whole entry, looked up): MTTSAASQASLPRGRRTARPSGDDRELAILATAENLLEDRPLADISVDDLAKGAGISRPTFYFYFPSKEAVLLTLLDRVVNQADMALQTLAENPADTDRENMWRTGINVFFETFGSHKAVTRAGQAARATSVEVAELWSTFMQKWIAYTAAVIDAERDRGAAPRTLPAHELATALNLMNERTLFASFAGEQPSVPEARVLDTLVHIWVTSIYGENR
Text: Surface Plasmon Resonance test (SPR) (described in the article “Ethionamide Boosters Combining Bioisosteric Replacement and Structure-Based Drug Design to Solve Pharmacokinetic Issues in a series of potent 1,2,4-Oxadiazole EthR Inhibitors” published in 2012 in the Journal of Medicinal Chemistry)
After having measured the ligands' affinity for the protein, it is necessary to verify that this does indeed result in the inactivation of the transcriptional repressor, thus preventing it from binding to its operon. For this, a functional test based on the principle of surface plasmon resonance is used. Surface Plasmon Resonance (SPR) makes it possible to visualize in real time the phenomena of association or dissociation between a partner immobilized on a biosensor and, a second partner injected in a continuous flow onto this surface. In the present case, the SPR technique enables the interaction between the EthR protein (analyte injected in continuous flow) and the ethA gene promoter (partner immobilized on the surface) to be visualized. Two cells are used for the test: a measuring cell onto which the so-called relevant DNA is affixed, i.e. corresponding to the ethA gene promoter, and a control cell on which is a non-relevant (thus different) DNA strand of same length, enabling the non-specific protein/DNA interactions to be removed. In a first step, the EthR protein is injected alone, until saturation, which enables a signal SIEthR corresponding to the quantity of EthR protein that has come to bind to the DNA to be measured. In a second step, the experience is reiterated in the presence of a potential ligand at different concentrations. If the compound binds to the EthR, thus preventing it from coming to bind on the DNA, a diminution of the response of the dose-dependent signal (SIEthR+lig) is observed.
By using the equation hereafter, it is possible to calculate for each concentration a percentage for the inhibition of the ligand under examination:
By representing the variation of the inhibition percentage depending on the ligand concentration, a value for IC50 can be deduced.

Measurement of the log D = type: physicochemical; conditions: octanol/PBS (1/1); octanol/PBS at pH 7.4, triplicate
Description: 40 μL of a solution at 10 mM in the DMSO of the sample are added to 1.96 mL of a mixture of 1/1 octanol/PBS at pH 7.4. The solution is agitated during 2 h at AT. 20 μL of each phase are added to 180 μL MeOH and analyzed by LC-MS. Each compound is evaluated in triplicate. The log D is determined as being the logarithm of the ratio of the product concentrations in the octanol and PBS phases, determined par the mass signals.

EthR protein = EthR protein (Mycobacterium tuberculosis, UniProt P9WMC1); assay: TSA test (Thermal Shift Assay), fluorescence with Sypro Orange; type: binding, M. tuberculosis; conditions: melting temperature shift of EthR with ligand vs protein alone
Sequence of EthR protein (P9WMC1 whole entry, looked up): as above

SMILES	solubility at 24 h [1]	EC50 [2]	IC50 [3]	logD at 2 h (Measurement of the log D)	ΔTm (EthR protein)
CC(C)Cc1nc(-c2ccc(C(=O)NCCC(F)(F)F)cc2)cs1 [Compound 49, 4-(2-isobutylthiazol-4-yl)-N-(3,3,3-trifluoropropyl)benzamide]	4.4 µM	< 40 nM	440 ± 10 nM	3.91	12.6 °C
CC(C)OC(=O)Cc1nc(-c2ccc(S(=O)(=O)NCCC(F)(F)F)cc2)cs1 [Compound 35, 2-(4-(4-(N-(3,3,3-trifluoropropyl)sulfamoyl)phenyl)thiazol-2-yl) isopropyl acetate]	2.8 µM	300 nM		3.76	11.6 °C
O=C(NCCC(F)(F)F)c1ccc(-c2csc(-c3ccncc3)n2)cc1 [Compound 57, 4-(2-(pyridin-4-yl)thiazol-4-yl)-N-(3,3,3-trifluoropropyl)benzamide]	29 µM	< 10 nM		3.07	12.6 °C
Cc1nc(-c2ccc(S(=O)(=O)NCCC(C)C)cc2)cs1 [Compound 6, 4-(2-methylthiazol-4-yl)-N-isopentyl benzene sulfonamide]	20 µM	5700 nM	4900 ± 100 nM	3.55	6.1 °C
CC(C)CCCc1nc(-c2ccc(S(=O)(=O)NCCC(F)(F)F)cc2)cs1 [Compound 38, 4-(2-(4-methylpentyl)thiazol-4-yl)-N-(3,3,3-trifluoropropyl)benzene sulfonamide]	< 1 µM	390 nM		> 4	12.4 °C
CCc1cc(-c2nc(-c3ccc(C(=O)NCCC(F)(F)F)cc3)cs2)ccn1 [Compound 58, 4-(2-(2-ethylpyridin-4-yl)thiazol-4-yl)-N-(3,3,3-trifluoropropyl)benzamide]	3.3 µM	< 10 nM		3.95	13.3 °C
Cc1nc(-c2ccc(C(=O)NCCC(F)(F)F)cc2)cs1 [Compound 43, 4-(2-methylthiazol-4-yl)-N-(3,3,3-trifluoropropyl)benzamide]	46.9 µM	83 nM	480 ± 60 nM	2.82	11.4 °C
Cc1nc(-c2ccc(S(=O)(=O)NCCC(F)(F)F)cc2)cs1 [Compound 24]	41.4 µM	290 nM	550 ± 20 nM	3.12	8.5 °C
